In patent US8658687B2, “Injectable formulations containing asenapine and method of treatment using same” (Merck Sharp & Dohme Corp., priority 2009, dated 2014):

How the values were obtained:
[1] = Plasma concentration of asenapine after depot injection in patients with stable chronic schizophrenia; assay type: in vivo, human; details: 1.0 mL of 20 wt % suspension in deltoid muscle, d50 10 microns
Description: Formulations of the invention were studied in human patients diagnosed with stable chronic schizophrenia. Using the same procedure described above, a suspension was prepared comprising 20 wt % of crystalline Form II of asenapine hemipamoate. The Form II particle fraction employed to prepare the suspension yielded a d10 value of 3 microns, a d90 value of 27 microns and a d50 value of 10 microns. An injection of 1.0 mL volume of the suspension was administered in the deltoid muscle of the upper arm by inserting the needle in the thickest part of the deltoid muscle at a 90 degree angle to the skin, followed by aspiration for 5 to 10 seconds, followed by injection of the depot over a 10 second interval. The plasma concentration of asenapine provided by the depot was observed using the above-described procedure.

[2] = In vitro dissolution in USP paddle stirring dissolution apparatus; details: for rate of dissolution, Form I compared with Form II (FIG. 8a): phosphate buffered saline 10 mM pH 7.0, 37° C., 100 RPM, similar particle size fractions
Description: To carry out these studies, particle, fractions of crystalline Form II of asenapine hemipamoate having d50, values of 3.5 microns, 7 microns, and 20 microns respectively, (see FIG. 7e) were obtained and placed into one of the dissolution vessels of the apparatus. Prior to charging a dissolution vessel with an aliquot of particles, each of the vessels was filled with 1 L of phosphate buffered saline (10 mM, adjusted to pH 7.0) and fitted with a probe that contained a mirror and optical arrangement in its tip defining a fixed sample path. Each probe was optically connected to a central light source and detector permitting real-time photometric monitoring of the concentration of asenapine in solution as dissolution proceeded during the investigation.
The particle fractions were prepared for use in the apparatus by dispersing the sample (20 mg) in 1 mL of an aqueous solution comprising 3 wt. % macrogol 3400, 0.118 wt. % of disodium hydrogen phosphate, 0.047 wt. % sodium dihydrogen phosphate and 0.76 wt. % sodium chloride. Each determination was carried out by adjusting the apparatus to the desired dissolution conditions (temperature, paddle speed, pH of dissolution media) and injecting 50 microliter of the selected crystalline Form II of asenapine hemipamoate dispersion (equivalent to 1 mg of crystalline Form II of asenapine hemipamoate) into a dissolution vessel filled with the desired dissolution medium. Asenapine hemipamoate concentration in the dissolution medium was monitored optically using the probe system described above during the course of the dissolution.
The above-described in vitro testing methodology was used to compare the dissolution of crystalline crystalline Form I of asenapine hemipamoate hemipamoate (as precipitated) and crystalline Form II of asenapine hemipamoate (as precipitated). Accordingly, 20 mg of a particle fraction of crystalline Form I of asenapine hemipamoate having a d50 value of 19 microns, a d90 value of 41 microns and a d10 value of 3 microns was dispersed into 2 mL of a polysorbate 80 solution. An aliquot of 100 microliter of the dispersion was introduced into dissolution medium contained in a paddle stirring apparatus as described above. For these tests the dissolution vessels of the apparatus were filled with 1 L of phosphate buffered saline (10 mM, adjusted to pH 7.0). The temperature of the dissolution medium was maintained at 37° C. and the apparatus paddle speed was set at 100 RPM.
For comparison, a 100 microliter sample of a dispersion comprising 100 mg of crystalline Form II of asenapine hemipamoate particle fraction having a d50 value of 16 microns, a d90 value of 50 microns, and a d10 value of 2 microns, dispersed in 1 mL of a polysorbate 80 solution, as described above was studied under the same conditions and dissolution medium used to study the sample containing crystalline Form I of asenapine hemipamoate.

[3] = Stability of particles suspended in pH 7 phosphate buffer on storage, crystal form followed by DSC; assay type: physicochemical; details: suspended in phosphate buffer pH 7, stored at 30° C. and 40° C.
Description: With reference to FIG. 2a, the conversion of Form I to Form II was monitored by periodically taking aliquots of the stored suspension, isolating the suspended solids by filtration and drying the isolated solids at room temperature. DSC analysis was performed on the isolated, dried solids using a 10 mg sample of the solids and a Mettler DSC 822e programmed to heat at a rate of 10° C./min, from 25° C. to 250° C. The results of this study are presented in, with the result shown in the upper traces of FIG. 2a.

[4] = IM depot of suspended olanzapine pamoate particles; cited from earlier work
[5] = IM depot injection, mean particle diameter 6.63, 10.68, 17.16 or 29.96 microns, dogs; cited from earlier work
[6] = Plasma levels of asenapine after IM depot injection in rabbits; assay type: in vivo, New Zealand white rabbits; details: 1 mL IM injection, 20 wt % suspension, Form I mean particle size 20 micron, Form II 16 micron, rabbit
Description: Each of the formulations prepared in Example 2 were administered to a series of experimental animal subjects (New Zealand white rabbits) as a depot injection. A depot of 1 mL volume of the formulation selected was administered into the left limb of the subject. At time intervals following injection, blood samples were collected from the subject's ear artery in 0.03 mL of 0.2M EDTA, Samples were collected at 1, 3, and 6 hours post injection, then 1, 2, 3, and 6 days post injection, then on days 10, 13, 17, 20, 24 and 25. Once collected, blood samples were centrifuged for 2 min. at room temperature (125,000 N/kg). Plasma samples thus obtained were analyzed by LC/MS after adding an internal standard. The asenapine and internal standard were isolated from the sample by solid phase extraction. […]
In additional animal studies, and with Reference to FIG. 10, using the same procedures described above, suspensions comprising 20 wt % of asenapine hemipamoate of Form I (mean particle size of 20 micron) and Form II (mean particle size 16 micron) were prepared. […] Plasma levels of asenapine were determined using the above-described procedure. […]

[7] = Solubility in aqueous phosphate buffer at pH 7

Structure (SMILES): CN1C[C@@H]2c3ccccc3Oc3ccc(Cl)cc3[C@H]2C1.CN1C[C@@H]2c3ccccc3Oc3ccc(Cl)cc3[C@H]2C1.O=C(O)c1cc2ccccc2c(Cc2c(O)c(C(=O)O)cc3ccccc23)c1O [crystalline Form II of asenapine hemipamoate]
- period of controlled release of asenapine (FIG. 11) [1]: about 4 weeks
- effect of temperature of dissolution medium on dissolution behavior (FIG. 7b) ([2]; 35° C. to 39° C.): reasonably insensitive to variation in temperature
- effect of paddle speed on dissolution behavior (FIG. 7d) ([2]; 50 rpm to 150 rpm): reasonably insensitive to variation in the paddle speed
- effect of dissolution medium pH on rate of dissolution (FIG. 7c) ([2]; pH 6 to pH 8, d50 3.5 or 20 micron fractions): does not significantly vary the rate of dissolution
- rate of dissolution, Form I compared with Form II (FIG. 8a) [2]: dissolve much slower
- effect of d50 value of particle fraction on rate of dissolution (FIG. 7a) ([2]; same conditions, d50 3.5, 7, 20 microns): greatly influenced by the d50 value
- stability of crystalline form on storage of suspension (DSC of recovered solids) [3]: does not decompose or convert to any other crystalline form

Structure (SMILES): Cc1cc2c(s1)Nc1ccccc1N=C2N1CCN(C)CC1.O.O=C(O)c1cc2ccccc2c(Cc2c(O)c(C(=O)O)cc3ccccc23)c1O [olanzapine pamoate]
- adverse events in trials [4]: extreme sedation and reversible coma

Structure (SMILES): CCC1(c2ccccc2)C(=O)NC(=O)NC1=O [phenobarbital]
- plasma concentrations of phenobarbital versus mean particle diameter (FIG. 1) [5]: tracked inversely with the mean particle diameter

Structure (SMILES): CN1C[C@@H]2c3ccccc3Oc3ccc(Cl)cc3[C@H]2C1.CN1C[C@@H]2c3ccccc3Oc3ccc(Cl)cc3[C@H]2C1.O=C(O)c1cc2ccccc2c(Cc2c(O)c(C(=O)O)cc3ccccc23)c1O [crystalline Form I of asenapine hemipamoate] [reference compound]
- rate of dissolution, Form I compared with Form II (FIG. 8a) [2]: significantly higher
- initial plasma levels, Form I versus Form II (FIG. 10) [6]: burst release
- solubility of Form I relative to Form II [7]: approximately 4 times
- stability of crystalline form on storage of suspension (DSC of recovered solids) [3]: slowly converted to crystalline Form II of asenapine hemipamoate
